Values joined by “and” are separate entries in the source; they are usually repeats but may differ in a detail not shown here. Identical values can stand only once.
Test system: THP-1 viability, CellTiter-Glo luminescence, 72 h
Test: PubChem AID 2252

**Q.** For `CCCCCCCCCCOC(=O)Cn1c(COc2ccc(OC)cc2)[n+](C)c2ccccc21`, which EC50 is on record?
**A.** 4.04 µM and 2.21 µM

**Q.** Which EC50 does the source give for `CC(=O)NNC(=S)NC(=O)c1ccccc1` here?
**A.** 44.8 µM

**Q.** Which EC50 does the source give for `CCCCOc1ccc(NC2=NC3(CCCC3)N=C(N)N2)cc1` here?
**A.** 17.4 µM

**Q.** With `COc1ccc(C(=O)NC(=S)NNC(=O)c2cccnc2)cc1` as the molecule, how does the EC50 read?
**A.** 21.4 µM

**Q.** With `O=C(CC(=O)c1ccccc1O)c1cccc(F)c1` as the molecule, how does the EC50 read?
**A.** 26.2 µM

**Q.** Which EC50 does the source give for `O=C1C(Cl)=C(NCc2cccnc2)C(=O)c2ccccc21` here?
**A.** 12.5 µM

**Q.** `C=CCNc1ncnc2c1[nH]c1ccc(C)cc12` was tested. Which EC50 did it give?
**A.** 29.5 µM

**Q.** With `CN(C)c1ccc2nc3ccc(=[N+](C)C)cc-3sc2c1` as the molecule, how does the EC50 read?
**A.** 0.72 µM

**Q.** With `CCC(O)(CC)C(=O)N/N=C/c1cc(Br)cc(Br)c1O` as the molecule, how does the EC50 read?
**A.** 15.4 µM

**Q.** For `CCc1nc(N)nc(N)c1-c1ccc(Cl)cc1`, which EC50 is on record?
**A.** 10.5 µM

**Q.** How did the EC50 turn out when `C#CCOCCOCCOCCNc1nc(N2CCN(C(=O)CCCCCCCCCCNC(=O)[C@@H](CCSC)n3cc(CCO)nn3)CC2)nc(N2CCN(C(=O)CCCCCCCCCCNC(=O)[C@H]([C@@H](C)CC)n3cc(CCCCN=C(N)N)nn3)CC2)n1` was run?
**A.** 9.78 µM

**Q.** With `COc1cc2c(cc1OC)[C@H](Cc1ccc(O)cc1)NCC2` as the molecule, how does the EC50 read?
**A.** 23.4 µM

**Q.** Which EC50 does the source give for `O=C(N/N=C/c1ccccc1O)c1ccncc1` here?
**A.** 15.2 µM

**Q.** With `Nc1nc2ccccc2n1Cc1ccc(Cl)c(Cl)c1` as the molecule, how does the EC50 read?
**A.** 31.6 µM

**Q.** How did the EC50 turn out when `O=C(CN1CC(c2ccccc2)CC1=O)N/N=C/c1cc(Br)ccc1O` (centres undefined) was run?
**A.** 3.85 µM

**Q.** `O=C(CC1NCCc2ccccc21)Nc1ccc(Oc2ccccc2)cc1` (centres undefined) was tested. Which EC50 did it give?
**A.** 14.3 µM

**Q.** Which EC50 does the source give for `CC(C(=O)NC1C=CS(=O)(=O)C1)N1C(=O)/C(=C/c2ccc(Cl)cc2)SC1=S` (centres undefined) here?
**A.** 25.7 µM

**Q.** Which EC50 does the source give for `COc1cc(Br)cc(/C=N/c2ncn[nH]2)c1O` here?
**A.** 49.9 µM

**Q.** With `CCOC(=O)c1nc(C)n(-c2cc(Cl)ccc2Cl)n1` as the molecule, how does the EC50 read?
**A.** 14.9 µM

**Q.** For `Fc1ccc(/C=N/Nc2nc3ccccc3[nH]2)cc1F`, which EC50 is on record?
**A.** 42.8 µM

**Q.** How did the EC50 turn out when `Cc1ccc(C(=O)N/C(=C\c2ccc(-c3ccc(Br)cc3)o2)C(=O)NCCCN(C)C)cc1` was run?
**A.** 4.18 µM

**Q.** For `Fc1ccc(NC(=S)Nc2cc(-c3ccccc3)[nH]n2)cc1Cl`, which EC50 is on record?
**A.** 41.9 µM

**Q.** Which EC50 does the source give for `O=C(COc1ccc(Br)cc1CNCCc1ccccc1)NCc1ccccc1` here?
**A.** 10.4 µM

**Q.** With `CN(C)c1ccc(/C=C/c2ccc3ccccc3[n+]2C)cc1` as the molecule, how does the EC50 read?
**A.** 0.71 µM

**Q.** `O=C(Nc1ccncc1)c1cc(-c2ccccn2)nc2ccccc12` was tested. Which EC50 did it give?
**A.** 23.7 µM

**Q.** With `Cc1ccc(-n2c(-c3ccc(Br)cc3)c[n+]3c2CCc2ccc4cccnc4c2-3)cc1` as the molecule, how does the EC50 read?
**A.** 0.76 µM

**Q.** Which EC50 does the source give for `Cc1ccc(-c2cc(N)nc(-c3ccccc3)c2)cc1` here?
**A.** 28.6 µM

**Q.** How did the EC50 turn out when `Cc1ccc2oc(=O)c(/C=C(\O)c3ccccc3)nc2c1` was run?
**A.** < 0.1 µM

**Q.** How did the EC50 turn out when `CCCCc1ccc(N/C(N)=N/c2nc(C)cc(C)n2)cc1` was run?
**A.** 6.47 µM

**Q.** For `CCCCCCCCCCCCCCCC[N+](C)(C)CCN(Cc1ccc(OC)cc1)c1ncccn1`, which EC50 is on record?
**A.** 0.36 µM

**Q.** How did the EC50 turn out when `OC1CCCN(Cc2ccc3ccc4cccc5ccc2c3c45)C1` (centres undefined) was run?
**A.** 15.2 µM

**Q.** Which EC50 does the source give for `Fc1ccc(Nc2ccnc(Nc3ccc(F)cc3)n2)cc1` here?
**A.** 11.7 µM

**Q.** With `O=C(Nc1csc(Cl)c1)c1ccccc1` as the molecule, how does the EC50 read?
**A.** < 0.1 µM

**Q.** For `Oc1cccc(Nc2nc(NCC3CCCO3)c3ccccc3n2)c1` (centres undefined), which EC50 is on record?
**A.** 1.36 µM

**Q.** How did the EC50 turn out when `c1ccc2c(c1)CSc1sccc1C2=C1CCNCC1` was run?
**A.** 17.7 µM

**Q.** `COc1ccc(C(=O)Nc2cc3c(cc2OC)CCCC3)cc1Br` was tested. Which EC50 did it give?
**A.** < 0.1 µM

**Q.** `Cc1ccc(C(OCC(O)CNCc2ccc(F)cc2)c2ccccc2)cc1` (centres undefined) was tested. Which EC50 did it give?
**A.** 13 µM

**Q.** How did the EC50 turn out when `O=C(CSc1ccc(Cl)cc1)c1ccco1` was run?
**A.** < 0.1 µM

**Q.** `Cc1ccc(OCC(=O)N/N=C\c2c(C)[nH]n(-c3ccccc3)c2=O)c([N+](=O)[O-])c1` was tested. Which EC50 did it give?
**A.** 6.86 µM

**Q.** With `Cc1cc2ncn(/N=C/c3ccc([N+](=O)[O-])o3)c2cc1C` as the molecule, how does the EC50 read?
**A.** 49.3 µM

**Q.** For `C(=N\Nc1nc2ccccc2[nH]1)/c1ccc2ncccc2c1`, which EC50 is on record?
**A.** 15.6 µM

**Q.** Which EC50 does the source give for `C/C(=N\Nc1ccc2nncn2n1)c1ccccn1` here?
**A.** 6.13 µM

**Q.** For `O=C(N/N=C/c1cc(Cl)cc(Cl)c1O)c1ccncc1`, which EC50 is on record?
**A.** 5.38 µM

**Q.** Which EC50 does the source give for `Clc1c(OCCCn2ccnc2)ccc2ccccc12` here?
**A.** 41.1 µM

**Q.** Which EC50 does the source give for `CCC(/C=C1\Sc2ccc(OC)cc2N1CCO)=C\c1sc2ccc(OC)cc2[n+]1CCO` here?
**A.** 8.14 µM

**Q.** How did the EC50 turn out when `CCCCCc1ccc(OCCCC[n+]2ccccc2)c(CCCCC)c1` was run?
**A.** 1.48 µM

**Q.** Which EC50 does the source give for `COc1ccc2c(C(=O)CCl)c[nH]c2c1` here?
**A.** 11.2 µM

**Q.** Which EC50 does the source give for `O=C(CN1C2=NCCCN2c2ccccc21)c1ccc([N+](=O)[O-])cc1` here?
**A.** 32.5 µM

**Q.** For `CCN1CCN(CCNC(=O)c2ccc(/C=C3/Sc4ccccc4N(Cc4cccc(C)c4)C3=O)cc2)CC1`, which EC50 is on record?
**A.** 8.21 µM

**Q.** How did the EC50 turn out when `CCCCCCC[N+](CC)(CC)CCCCc1ccc(Cl)cc1` was run?
**A.** 3.22 µM

**Q.** With `CC(=O)NC(c1ccc2ccccc2c1)c1ccc2cccnc2c1O` (centres undefined) as the molecule, how does the EC50 read?
**A.** 0.36 µM

**Q.** How did the EC50 turn out when `CN1CCN(C(c2ccc(Cl)cc2)c2cc(Cl)c3cccnc3c2O)CC1` (centres undefined) was run?
**A.** 3.11 µM

**Q.** For `Cc1cc(C)c(NC(=O)C[N+](C)(C)CC(O)COc2cccc3ccccc23)c(C)c1` (centres undefined), which EC50 is on record?
**A.** 12.8 µM

**Q.** Which EC50 does the source give for `CCCCn1c(NS(=O)(=O)c2ccccc2)c(S(=O)(=O)c2ccc(C)cc2)c2nc3ccccc3nc21` here?
**A.** 12 µM

**Q.** With `O=C(CN1C2=NCCN2c2ccccc21)c1ccco1` as the molecule, how does the EC50 read?
**A.** < 0.1 µM

**Q.** `CNCc1c(OCc2ccccc2F)ccc2ccccc12` was tested. Which EC50 did it give?
**A.** 15.2 µM

**Q.** With `Cc1ccc(C(=O)N/C(=C\c2ccc(-c3ccc(Cl)cc3)o2)C(=O)NCCCN(C)C)cc1` as the molecule, how does the EC50 read?
**A.** 5.31 µM

**Q.** With `O=Nc1c(O)c2ccccc2c2ccccc12` as the molecule, how does the EC50 read?
**A.** 3.08 µM

**Q.** With `Clc1ccc2c(c1)C(N1CCNCC1)Cc1ccccc1S2` (centres undefined) as the molecule, how does the EC50 read?
**A.** 7.4 µM

**Q.** `OCCN1CCN(CCCN2c3ccccc3Sc3ccc(Cl)cc32)CC1` was tested. Which EC50 did it give?
**A.** 12.5 µM

**Q.** `OCCN1CCN(Cc2cc(Cl)c3cccnc3c2O)CC1` was tested. Which EC50 did it give?
**A.** 7.5 µM

**Q.** `CN1CCN(C2=Cc3ccccc3Sc3cc(F)c(F)cc32)CC1` was tested. Which EC50 did it give?
**A.** 14.8 µM

**Q.** Which EC50 does the source give for `Cc1c(O)cccc1C(=O)N[C@@H](CSc1ccccc1)[C@H](O)CN1C[C@H]2CCCC[C@H]2C[C@H]1C(=O)NC(C)(C)C` here?
**A.** 11.9 µM and 11.6 µM

**Q.** Which EC50 does the source give for `Cc1cc(OCC(O)CNC(C)c2ccccc2)ccc1C(C)C` (centres undefined) here?
**A.** 13.4 µM

**Q.** For `CCc1ccc(NC(=O)C[n+]2cc(-c3ccc(C)cc3)n3c2CCC3)cc1`, which EC50 is on record?
**A.** 5.71 µM

**Q.** `O=C(Cc1ccc([N+](=O)[O-])cc1)N/N=C/c1ccc([N+](=O)[O-])o1` was tested. Which EC50 did it give?
**A.** 12.1 µM

**Q.** Which EC50 does the source give for `CN(O)/C=c1/ccc2c(n1)C(=O)C=CC=2` here?
**A.** 25.5 µM

**Q.** Which EC50 does the source give for `CCOC(=O)c1c(C)[nH]c(C(=O)CN2C(=O)NC(C)(c3ccc4ccccc4c3)C2=O)c1C` (centres undefined) here?
**A.** 39.1 µM

**Q.** With `CCN1CCN(CCNC(=O)c2ccc(/C=C3/Sc4ccccc4N(Cc4cccc(Cl)c4)C3=O)cc2)CC1` as the molecule, how does the EC50 read?
**A.** 8.93 µM

**Q.** With `O=C(NC(=S)NNC(=O)c1cccs1)c1ccc(Br)o1` as the molecule, how does the EC50 read?
**A.** 27.5 µM

**Q.** For `Cc1ccc(Cn2c(=N)n(CC(O)COc3ccccc3)c3ccccc32)cc1` (centres undefined), which EC50 is on record?
**A.** 6.08 µM

**Q.** How did the EC50 turn out when `COc1cccc(/C=C/C(=O)c2cccc([N+](=O)[O-])c2)c1OC` was run?
**A.** 22.3 µM

**Q.** For `CCCCCCCCCCCCCCCC[n+]1ccc(/C=N/O)cc1`, which EC50 is on record?
**A.** 0.3 µM

**Q.** Which EC50 does the source give for `O=C(Nc1ccc([N+](=O)[O-])cc1Cl)c1cc(Cl)ccc1O` here?
**A.** 1.93 µM

**Q.** With `CCCCc1ccc(NC2=NCCCS2)cc1` as the molecule, how does the EC50 read?
**A.** 21.3 µM

**Q.** How did the EC50 turn out when `CNCCCC1Sc2ccccc2Oc2ccccc21` (centres undefined) was run?
**A.** 23.6 µM

**Q.** `COc1cccc(Nc2nc(NCCO)c3ccccc3n2)c1` was tested. Which EC50 did it give?
**A.** 2.26 µM

**Q.** For `Cc1cc(C)c2nc(C)cc(N/N=C/c3ccc(O)cc3)c2c1`, which EC50 is on record?
**A.** 1.91 µM

**Q.** With `COc1ccc(C(=O)CSc2nnc(-c3cnccn3)n2Cc2ccco2)cc1` as the molecule, how does the EC50 read?
**A.** < 0.1 µM

**Q.** Which EC50 does the source give for `Cc1ccc(OCC(O)Cn2c(=N)n(CCN3CCCCC3)c3ccccc32)cc1` (centres undefined) here?
**A.** 5.35 µM

**Q.** Which EC50 does the source give for `Nc1nc(Nc2cccc(F)c2)nc2ccccc12` here?
**A.** 8.85 µM

**Q.** For `C[C@@H](NC(=O)/C(C#N)=C/c1ccc(O)c(O)c1)c1ccccc1`, which EC50 is on record?
**A.** 15.2 µM

**Q.** For `O=c1c2ccccc2nc(N/N=C/c2c(O)ccc3ccccc23)n1O`, which EC50 is on record?
**A.** 0.99 µM

**Q.** How did the EC50 turn out when `N=c1n(Cc2ccc(Cl)cc2)c2ccccc2n1CC(O)COc1ccccc1` (centres undefined) was run?
**A.** 5.39 µM
